Columns and labels:
[1] = system: B-A21; experiment: Planktonic growth with extract and antibiotic relative to growth without both (Example 14); format: cell-based
Method: (§1) Starting from the herbal composition, the corresponding water extracts (or processed samples) was prepared according to the previously described Method B using 2.06 g of the above herbal composition with 40 mL water with 100 g/L sucrose for water extraction and including the decantation step before filtration. In an independent water extract preparation without sucrose, it has been measured that 2.06 g/40 mL of herbal composition corresponds to 14.5 g/L as deduced from the weight of the lyophilized dry herbal extract.
(§2) In Example 14 we calculate the growth of the bacteria in presence of antibiotic and/or herbal mix relative to the growth in the absence of both antibiotic and herbal mix extract.

[2] = system: B-A17; experiment: as above; format: cell-based
Method: as §1, §2

[3] = M[20C]-576 0 μg/mL, antibiotic 3.91 μg/mL
[4] = M[20C]-576 0 μg/mL, antibiotic 7.81 μg/mL
[5] = M[20C]-576 0 μg/mL, antibiotic 15.63 μg/mL
[6] = M[20C]-576 0 μg/mL, antibiotic 31.25 μg/mL
[7] = M[20C]-576 0 μg/mL, antibiotic 62.50 μg/mL
[8] = M[20C]-576 0 μg/mL, antibiotic 125 μg/mL
[9] = M[20C]-576 0 μg/mL, antibiotic 250 μg/mL
[10] = M[20C]-576 0 μg/mL, antibiotic 500 μg/mL
[11] = M[20C]-576 0 μg/mL, antibiotic 1000 μg/mL
[12] = M[20C]-576 0 μg/mL, antibiotic 2000 μg/mL
[13] = M[20C]-576 0 μg/mL, antibiotic 4000 μg/mL
[14] = M[20C]-576 90.6 μg/mL, antibiotic 3.91 μg/mL
[15] = M[20C]-576 90.6 μg/mL, antibiotic 7.81 μg/mL
[16] = M[20C]-576 90.6 μg/mL, antibiotic 15.63 μg/mL
[17] = M[20C]-576 90.6 μg/mL, antibiotic 31.25 μg/mL
[18] = M[20C]-576 90.6 μg/mL, antibiotic 62.50 μg/mL
[19] = M[20C]-576 90.6 μg/mL, antibiotic 125 μg/mL
[20] = M[20C]-576 90.6 μg/mL, antibiotic 250 μg/mL
[21] = M[20C]-576 90.6 μg/mL, antibiotic 500 μg/mL
[22] = M[20C]-576 90.6 μg/mL, antibiotic 1000 μg/mL
[23] = M[20C]-576 90.6 μg/mL, antibiotic 2000 μg/mL
[24] = M[20C]-576 90.6 μg/mL, antibiotic 4000 μg/mL
[25] = M[20C]-576 181.3 μg/mL, antibiotic 3.91 μg/mL
[26] = M[20C]-576 181.3 μg/mL, antibiotic 7.81 μg/mL
[27] = M[20C]-576 181.3 μg/mL, antibiotic 15.63 μg/mL
[28] = M[20C]-576 181.3 μg/mL, antibiotic 31.25 μg/mL
[29] = M[20C]-576 181.3 μg/mL, antibiotic 62.50 μg/mL
[30] = M[20C]-576 181.3 μg/mL, antibiotic 125 μg/mL
[31] = M[20C]-576 181.3 μg/mL, antibiotic 250 μg/mL
[32] = M[20C]-576 181.3 μg/mL, antibiotic 500 μg/mL
[33] = M[20C]-576 181.3 μg/mL, antibiotic 1000 μg/mL
[34] = M[20C]-576 181.3 μg/mL, antibiotic 2000 μg/mL
[35] = M[20C]-576 181.3 μg/mL, antibiotic 4000 μg/mL

## Penicillin
[1]; [3]
  planktonic growth relative to the growth in the absence of both extract and antibiotic: 135%
[1]; [4]
  planktonic growth relative to the growth in the absence of both extract and antibiotic: 116%
[1]; [5]
  planktonic growth relative to the growth in the absence of both extract and antibiotic: 115%
[1]; [6]
  planktonic growth relative to the growth in the absence of both extract and antibiotic: 113%
[1]; [7]
  planktonic growth relative to the growth in the absence of both extract and antibiotic: 108%
[1]; [8]
  planktonic growth relative to the growth in the absence of both extract and antibiotic: 106%
[1]; [9]
  planktonic growth relative to the growth in the absence of both extract and antibiotic: 101%
[1]; [10]
  planktonic growth relative to the growth in the absence of both extract and antibiotic: 0%
[1]; [11]
  planktonic growth relative to the growth in the absence of both extract and antibiotic: 0%
[1]; [12]
  planktonic growth relative to the growth in the absence of both extract and antibiotic: 0%
[1]; [13]
  planktonic growth relative to the growth in the absence of both extract and antibiotic: 0%
[1]; [14]
  planktonic growth relative to the growth in the absence of both extract and antibiotic: 104%
[1]; [15]
  planktonic growth relative to the growth in the absence of both extract and antibiotic: 83%
[1]; [16]
  planktonic growth relative to the growth in the absence of both extract and antibiotic: 83%
[1]; [17]
  planktonic growth relative to the growth in the absence of both extract and antibiotic: 84%
[1]; [18]
  planktonic growth relative to the growth in the absence of both extract and antibiotic: 80%
[1]; [19]
  planktonic growth relative to the growth in the absence of both extract and antibiotic: 74%
[1]; [20]
  planktonic growth relative to the growth in the absence of both extract and antibiotic: 26%
[1]; [21]
  planktonic growth relative to the growth in the absence of both extract and antibiotic: 0%
[1]; [22]
  planktonic growth relative to the growth in the absence of both extract and antibiotic: 0%
[1]; [23]
  planktonic growth relative to the growth in the absence of both extract and antibiotic: 0%
[1]; [24]
  planktonic growth relative to the growth in the absence of both extract and antibiotic: 0%
[1]; [25]
  planktonic growth relative to the growth in the absence of both extract and antibiotic: 62%
[1]; [26]
  planktonic growth relative to the growth in the absence of both extract and antibiotic: 43%
[1]; [27]
  planktonic growth relative to the growth in the absence of both extract and antibiotic: 70%
[1]; [28]
  planktonic growth relative to the growth in the absence of both extract and antibiotic: 61%
[1]; [29]
  planktonic growth relative to the growth in the absence of both extract and antibiotic: 60%
[1]; [30]
  planktonic growth relative to the growth in the absence of both extract and antibiotic: 45%
[1]; [31]
  planktonic growth relative to the growth in the absence of both extract and antibiotic: −3%
[1]; [32]
  planktonic growth relative to the growth in the absence of both extract and antibiotic: −3%
[1]; [33]
  planktonic growth relative to the growth in the absence of both extract and antibiotic: −3%
[1]; [34]
  planktonic growth relative to the growth in the absence of both extract and antibiotic: −3%
[1]; [35]
  planktonic growth relative to the growth in the absence of both extract and antibiotic: −3%
[2]; [3]
  planktonic growth relative to the growth in the absence of both extract and antibiotic: 137%
[2]; [4]
  planktonic growth relative to the growth in the absence of both extract and antibiotic: 138%
[2]; [5]
  planktonic growth relative to the growth in the absence of both extract and antibiotic: 3%
[2]; [6]
  planktonic growth relative to the growth in the absence of both extract and antibiotic: 1%
[2]; [7]
  planktonic growth relative to the growth in the absence of both extract and antibiotic: 0%
[2]; [8]
  planktonic growth relative to the growth in the absence of both extract and antibiotic: −1%
[2]; [9]
  planktonic growth relative to the growth in the absence of both extract and antibiotic: 0%
[2]; [10]
  planktonic growth relative to the growth in the absence of both extract and antibiotic: 0%
[2]; [11]
  planktonic growth relative to the growth in the absence of both extract and antibiotic: 0%
[2]; [12]
  planktonic growth relative to the growth in the absence of both extract and antibiotic: 0%
[2]; [13]
  planktonic growth relative to the growth in the absence of both extract and antibiotic: 0%
[2]; [14]
  planktonic growth relative to the growth in the absence of both extract and antibiotic: 39%
[2]; [15]
  planktonic growth relative to the growth in the absence of both extract and antibiotic: 25%
[2]; [16]
  planktonic growth relative to the growth in the absence of both extract and antibiotic: 1%
[2]; [17]
  planktonic growth relative to the growth in the absence of both extract and antibiotic: 0%
[2]; [18]
  planktonic growth relative to the growth in the absence of both extract and antibiotic: 0%
[2]; [19]
  planktonic growth relative to the growth in the absence of both extract and antibiotic: 0%
[2]; [20]
  planktonic growth relative to the growth in the absence of both extract and antibiotic: 0%
[2]; [21]
  planktonic growth relative to the growth in the absence of both extract and antibiotic: 0%
[2]; [22]
  planktonic growth relative to the growth in the absence of both extract and antibiotic: 0%
[2]; [23]
  planktonic growth relative to the growth in the absence of both extract and antibiotic: 0%
[2]; [24]
  planktonic growth relative to the growth in the absence of both extract and antibiotic: 0%
[2]; [25]
  planktonic growth relative to the growth in the absence of both extract and antibiotic: 23%
[2]; [26]
  planktonic growth relative to the growth in the absence of both extract and antibiotic: 5%
[2]; [27]
  planktonic growth relative to the growth in the absence of both extract and antibiotic: −3%
[2]; [28]
  planktonic growth relative to the growth in the absence of both extract and antibiotic: −3%
[2]; [29]
  planktonic growth relative to the growth in the absence of both extract and antibiotic: −3%
[2]; [30]
  planktonic growth relative to the growth in the absence of both extract and antibiotic: −3%
[2]; [31]
  planktonic growth relative to the growth in the absence of both extract and antibiotic: −2%
[2]; [32]
  planktonic growth relative to the growth in the absence of both extract and antibiotic: −3%
[2]; [33]
  planktonic growth relative to the growth in the absence of both extract and antibiotic: −4%
[2]; [34]
  planktonic growth relative to the growth in the absence of both extract and antibiotic: −4%
[2]; [35]
  planktonic growth relative to the growth in the absence of both extract and antibiotic: −2%

Reference: patent US12702691B2, “Extract of an herbal composition as antimicrobial and/or antibiofilm agent” (ALPHANOSOS S.A.S., priority 2016, dated 2026)
